pIC50: −log10 of the molar value.
Key:
[1] = molecular target: T1, MTHFD1 recombinant human enzyme (Homo sapiens, UniProt P11586); test: MTHFD1 inhibition assay (NAD(P)H-Glo luminescence); conditions: MTHFD1 IC50, recombinant human enzyme 200 nM, NADP, band
T1 sequence (P11586 2-291 limits assumed): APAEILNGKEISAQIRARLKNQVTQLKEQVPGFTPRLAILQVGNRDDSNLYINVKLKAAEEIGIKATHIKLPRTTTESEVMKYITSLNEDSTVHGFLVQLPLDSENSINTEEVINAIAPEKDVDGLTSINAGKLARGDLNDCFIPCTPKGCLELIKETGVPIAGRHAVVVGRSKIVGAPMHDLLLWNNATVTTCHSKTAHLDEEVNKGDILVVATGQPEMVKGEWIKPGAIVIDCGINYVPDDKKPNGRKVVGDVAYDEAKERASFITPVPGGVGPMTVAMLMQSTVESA

[2] = molecular target: T2, MTHFD2 recombinant human enzyme (Homo sapiens, UniProt P13995); test: MTHFD2 inhibition assay (NAD(P)H-Glo luminescence); conditions: for MTHFD1/MTHFD2 IC50 ratio: selectivity of MTHFD2 inhibition over MTHFD1, band
T2 sequence (P13995 36-350): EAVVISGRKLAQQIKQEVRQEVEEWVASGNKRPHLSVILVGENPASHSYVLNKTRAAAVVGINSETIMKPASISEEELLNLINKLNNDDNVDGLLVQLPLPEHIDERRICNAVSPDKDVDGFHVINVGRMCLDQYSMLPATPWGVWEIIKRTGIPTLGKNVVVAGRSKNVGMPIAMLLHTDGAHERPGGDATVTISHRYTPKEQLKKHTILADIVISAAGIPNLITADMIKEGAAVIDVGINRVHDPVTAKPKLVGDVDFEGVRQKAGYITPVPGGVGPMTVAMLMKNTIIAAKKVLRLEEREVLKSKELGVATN

| SMILES | pIC50 [1] | pIC50 [2] | MTHFD1/MTHFD2 IC50 ratio [2] |
| --- | --- | --- | --- |
| COC[C@H]1CN(c2cc(C)c3c4c(c(=O)oc3c2C)CN(C(=O)c2ccc(C(=O)NS(=O)(=O)N3CCCC3)c(N3C5CCC3CC5)c2F)CC4)CCN1C [Example 97, (R)-2-(7-azabicyclo[2.2.1]heptan-7-yl)-3-fluoro-4-(8-(3-(methoxymethyl)-4-methylpiperazin-1-yl)-7,10-dimethyl-5-oxo-1,3,4,5-tetrahydro-2H-chromeno[3,4-c]pyridine-3-carbonyl)-N-(pyrrolidin-1-ylsulfonyl)benzamide] | 7.00 to 8.00 | 7.00 to 8.00 | F (<3) |
| CCOc1c(C(=O)NS(=O)(=O)N2CC3(CCC3)C2)ccc(C(=O)N2CCc3c(c(=O)oc4c(C)c(N5CCN(C)[C@@H](COC)C5)cc(C)c34)C2)c1F [Example 233] | 7.00 to 8.00 | 7.00 to 8.00 | F (<3) |
| Cc1c(N2CCN3CCOC[C@H]3C2)cc(C)c2c3c(c(=O)oc12)CN(C(=O)c1ccc(C(=O)NS(=O)(=O)N2CCCC2)c(OC2CCC2)c1)CC3 [Example 21, (R)-2-cyclobutoxy-4-(8-(hexahydropyrazino[2,1-c][1,4]oxazin-8(1 H)-yl)-7,10-dimethyl-5-oxo-1,3,4,5-tetrahydro-2H-chromeno[3,4-c]pyridine-3-carbonyl)-N-(pyrrolidin-1-ylsulfonyl)benzamide] | 6.00 to 7.00 | 6.00 to 7.00 | F (<3) |
| CCc1c(C(=O)NS(=O)(=O)N2C3CCC2CC3)ccc(C(=O)N2CCc3c(c(=O)oc4c(C)c(N5CCN(C)[C@@H](COC)C5)cc(C)c34)C2)c1F [Example 242] | 6.00 to 7.00 | 7.00 to 8.00 | H (>9.0 to 30) |
| COC[C@H]1CN(c2cc(C)c3c4c(c(=O)oc3c2C)CN(C(=O)c2ccc(C(=O)NS(=O)(=O)N3CCCC3)c(N3C5CCC3CC5)c2)CC4)CCN1C [Example 121, (R)-2-(7-azabicyclo[2.2.1]heptan-7-yl)-4-(8-(3-(methoxymethyl)-4-methylpiperazin-1-yl)-7,10-dimethyl-5-oxo-1,3,4,5-tetrahydro-2H-chromeno[3,4-c]pyridine-3-carbonyl)-N-(pyrrolidin-1-ylsulfonyl)benzamide] | 8.00 to 9.00 | 7.00 to 8.00 | F (<3) |
| CCOc1c(C(=O)NS(=O)(=O)N2C3CCCC2CC3)ccc(C(=O)N2CCc3c(c(=O)oc4c(C)c(N5CCN(C)[C@@H](COC)C5)cc(C)c34)C2)c1F [Example 234] | 7.00 to 8.00 | 7.00 to 8.00 | F (<3) |

Now from value to compound:

| pIC50 [1] | pIC50 [2] | MTHFD1/MTHFD2 IC50 ratio [2] | SMILES |
| --- | --- | --- | --- |
| 5.30 to 6.00 | 6.00 to 7.00 | H (>9.0 to 30) | COC[C@H]1CN(c2ccc3c4c(c(=O)oc3c2C)CN(C(=O)c2cc(N3CC5CC5C3)c(C(=O)NS(=O)(=O)N(C)C)c(C(F)(F)F)c2)CC4)CCN1C (stereo partly drawn) [Example 118, 2-(3-azabicyclo[3.1.0]hexan-3-yl)-N-(N,N-dimethylsulfamoyl)-4-(8-((R)-3-(methoxymethyl)-4-methylpiperazin-1-yl)-7-methyl-5-oxo-1,3,4,5-tetrahydro-2H-chromeno[3,4-c]pyridine-3-carbonyl)-6-(trifluoromethyl)benzamide] |
| 7.00 to 8.00 | 7.00 to 8.00 | F (<3) | COC[C@H]1CN(c2ccc3c4c(c(=O)oc3c2C)CN(C(=O)c2ccc(C(=O)NS(=O)(=O)C3(C)CC3)c(OC3CCCC3)c2)CC4)CCN1C [Example 8, (R)-2-(cyclopentyloxy)-4-(8-(3-(methoxymethyl)-4-methylpiperazin-1-yl)-7-methyl-5-oxo-1,3,4,5-tetrahydro-2H-chromeno[3,4-c]pyridine-3-carbonyl)-N-((1-methylcyclopropyl)sulfonyl)benzamide] |
| 6.00 to 7.00 | 7.00 to 8.00 | G (^ 3 to 9.0) | COC[C@H]1CN(c2ccc3c4c(c(=O)oc3c2C)CN(C(=O)c2cc(N3CCC3)c(C(=O)NS(=O)(=O)N3CC5CC5C3)cc2F)CC4)CCN1C (stereo partly drawn) [Example 203, N-((3-azabicyclo[3.1.0]hexan-3-yl)sulfonyl)-2-(azetidin-1-yl)-5-fluoro-4-(8-((R)-3-(methoxymethyl)-4-methylpiperazin-1-yl)-7-methyl-5-oxo-1,3,4,5-tetrahydro-2H-chromeno[3,4-c]pyridine-3-carbonyl)benzamide] |
| 8.00 to 9.00 | 8.00 to 9.00 | G (^ 3 to 9.0) | COC[C@H]1CN(c2cc(C)c3c4c(c(=O)oc3c2C)CN(C(=O)c2ccc(C(=O)NS(=O)(=O)N(C)C)c(N3CCC[C@@H]3C)c2)CC4)CCN1C [Example 103, N-(N,N-dimethylsulfamoyl)-4-(8-((R)-3-(methoxymethyl)-4-methylpiperazin-1-yl)-7,10-dimethyl-5-oxo-1,3,4,5-tetrahydro-2H-chromeno[3,4-c]pyridine-3-carbonyl)-2-((S)-2-methylpyrrolidin-1-yl)benzamide] |
| 5.30 to 6.00 | 6.00 to 7.00 | H (>9.0 to 30) | COC[C@H]1CN(c2ccc3c4c(c(=O)oc3c2C)CN(C(=O)c2cc(OC3CCCC3)c(C(=O)NS(=O)(=O)N(C)C)c(C(F)(F)F)c2)CC4)CCN1C [Example 117, (R)-2-(cyclopentyloxy)-N-(N,N-dimethylsulfamoyl)-4-(8-(3-(methoxymethyl)-4-methylpiperazin-1-yl)-7-methyl-5-oxo-1,3,4,5-tetrahydro-2H-chromeno[3,4-c]pyridine-3-carbonyl)-6-(trifluoromethyl)benzamide] |
| 8.00 to 9.00 | 8.00 to 9.00 | F (<3) | COC[C@H]1CN(c2cc(C)c3c4c(c(=O)oc3c2C)CN(C(=O)c2ccc(C(=O)NS(=O)(=O)C3(C)CC3)c(O[C@H]3C[C@@H]5C[C@@H]5C3)c2F)CC4)CCN1C [Example 68, 2-(((1R,3s,5S)-bicyclo[3.1.0]hexan-3-yl)oxy)-3-fluoro-4-(8-((R)-3-(methoxymethyl)-4-methylpiperazin-1-yl)-7,10-dimethyl-5-oxo-1,3,4,5-tetrahydro-2H-chromeno[3,4-c]pyridine-3-carbonyl)-N-((1-methylcyclopropyl)sulfonyl)benzamide] |
| 8.00 to 9.00 | 8.00 to 9.00 | F (<3) | COC[C@H]1CN(c2ccc3c4c(c(=O)oc3c2Cl)CN(C(=O)c2ccc(C(=O)NS(=O)(=O)N(C)C)c(OC3CCCC3)c2F)CC4)CCN1C [Example 44, (R)-4-(7-chloro-8-(3-(methoxymethyl)-4-methylpiperazin-1-yl)-5-oxo-1,3,4,5-tetrahydro-2H-chromeno[3,4-c]pyridine-3-carbonyl)-2-(cyclopentyloxy)-N-(N,N-dimethylsulfamoyl)-3-fluorobenzamide] |
| 8.00 to 9.00 | 8.00 to 9.00 | G (^ 3 to 9.0) | COC[C@H]1CN(c2cc(C)c3c4c(c(=O)oc3c2C)CN(C(=O)c2ccc(C(=O)NS(=O)(=O)C3(C)CC3)c(N3CCCC(F)(F)C3)c2)CC4)CCN1C [Example 75, (R)-2-(3,3-difluoropiperidin-1-yl)-4-(8-(3-(methoxymethyl)-4-methylpiperazin-1-yl)-7,10-dimethyl-5-oxo-1,3,4,5-tetrahydro-2H-chromeno[3,4-c]pyridine-3-carbonyl)-N-((1-methylcyclopropyl)sulfonyl)benzamide] |

From patent US12662489B2 (Sitryx Therapeutics Limited, priority 2023, dated 2026)
